Experimental findings from patent US20240124409A1, “GUAIANOLIDE SESQUITERPENE LACTONE DERIVATIVES AND PHARMACEUTICAL USE THEREOF” (NANJING UNIVERSITY OF CHINESE MEDICINE, priority 2021, published 2024) are described below.

SMILES strings stand for the structures.

The nature of data set [1]: Stability in artificial gastric juice environment (HPLC). As to conditions: 37° C.
Protocol: The samples were dissolved in 500 μL of chromatographic methanol, into which were added 1500 μL of artificial gastric juice, mixed well and then dissolved completely by ultrasound. 50 μL of the above solutions were aspirated precisely, diluted by adding 200 μL of chromatographic methanol, filtered and analyzed by HPLC, wherein the HPLC analysis conditions were mobile phase: 65% methanol -35% water, flow rate: 0.8 mL/min, and column temperature: 25° C., and the initial peak areas were recorded. The above solutions were placed on a constant temperature water bath at 37° C., sampled at 8 h, 16 h and 24 h respectively, and analyzed by HPLC. By calculating the peak areas respectively, the stability data of the corresponding samples in artificial gastric juice environment at 8 h, 16 h and 24 h can be obtained.
Data set [2] deals with mouse acute lung injury model. The experiment in a line: Mouse acute lung injury model (LPS), ELISA. The format is in vivo, C57BL/6 mice. As to conditions: title: serum (text b290: lung tissues). The protocol:
In addition to the normal group injected intragastrically with PBS, other mice were injected intraperitoneally with LPS (7.5 mg/kg) to establish acute lung injury models. Three days before model establishment, the parent drug 1 (0.4 and 4 μmol/kg), the hydrochloride 22 (0.4 and 4 μmol/kg), the fumarate 23 (0.4 and 4 μmol/kg) and the positive drug Dex (12 μmol/kg) were administered intragastrically in advance, and LPS (7.5 mg/kg) was injected intraperitoneally half an hour after administration on the third day.
abdominal cavity was opened. The lungs were taken out, and rinsed twice with pre-cooled PBS. […] The remaining tissues were frozen at −70° C. for subsequent use.
20 mg of lung tissues were accurately weighed, rinsed with pre-cooled PBS solution, cut into small pieces by ophthalmic surgical scissors, and put into a glass homogenizer, into which was added 180 μL PBS (containing 1 mM PMSF). The mixture was homogenized at 60 HZ for 180 s, and centrifuged at 3000 rpm/min at 4° C. for 20 min. 1 μL supernatant was taken, the protein concentration of which was measured with Nanodrop and leveled, and could be used for subsequent experiments.
On the technique in general: An ELISA detects its analyte on a solid surface through an enzyme-linked reagent.

Data set [3] has as its system DSS-induced UC model mice. The experiment in a line: Anti-ulcerative colitis activity, DSS mouse colitis model. The data set is classed as in vivo, C57BL/6 mice. Further details: key to DAI score: DAI = (weight loss + stool + occult blood scores)/3. As to conditions: for MPO activity in colon tissue / Colon length: 10 days. The protocol: Except for the normal group, the other mice were free to drink 2.5% DSS for 7 days, which was then replaced to distilled water to be drunk freely for 3 days to establish the UC model. […] The mice in the normal group and model groups were administered intragastrically the same volume of the solvent 0.5% CMC-Na.
The general living conditions of the mice in each group were observed and the disease activity indexs (DAI) were evaluated. The daily specific observation indicator was weight, stool property and occult blood state of mice, and then the scores of the weight loss, stool property and occult blood state were added to determine the average value, so as to obtain the DAI score of each mouse, that is, DAI=(weight loss score+stool property score+occult blood state score)/3, to evaluate the disease activity.
Test method of occult blood: Using o-toluidine method, a little feces was picked up into a 24-well culture plate with a cotton swab, into which was first added 200 μL of the solution of o-toluidine glacial acetic acid, and then quickly added 200 μL of 3% hydrogen peroxide solution. Those turned blue-brown within 2 minutes were positive.
1 h after the last administration, blood was collected from the venous plexus of fundus oculi, stood at room temperature for 2 h, and centrifuged at 3000 rpm for 20 min. The serum was aspirated, aliquoted, and frozen at −70° C. for subsequent use. After the blood collection, the mice were sacrificed by cervical dislocation, and the abdominal cavity was opened. The colon tissues were removed 1 cm away from the anus, rinsed twice with pre-cooled PBS, and frozen at −70° C. for subsequent use.
The shortening of colon length is one of the main characteristics of DSS-induced UC model mice. After dissecting the abdominal cavity of the UC mice, the colon and distal ileum tissues were dissociated. The external morphological changes of the colon tissues were observed, the colon length was measured and recorded, and the photos were taken.
40 mg of colon tissues of the mice in each group was taken, into which was added 400 μL of pre-cooled normal saline to prepare tissue homogenates. After centrifugation at 4° C. and 1200 rpm for 5 min, the supernatants were collected. According to the method described in the kit instructions, various reagents were added sequentially, and finally the absorbance value of each well was determined at the wavelength of 460 nm of the microplate reader to calculate the MPO activity.
MPO activity (U/g wet weight)=(OD value of test tube−OD value of control tube)/11.3×sampling amount(g)

Data set [4] deals with H22 cells. The experiment in a line: H22 subcutaneous mouse xenograft model, tumor growth. As to conditions: 2 weeks. The format is in vivo, BALB/c mice. Here is the method:
H22 cells were cultured and amplified in vitro. Appropriate amount of the cells in logarithmic growth phase were resuspended in a suspension of a serum-free RPMI 1640 medium and Matrigel (1:1) to prepare a cell suspension in 3×105/100 μL under sterile conditions. 100 μL of the cell suspension was subcutaneously inoculated into the armpits of the front left limbs of BALB/c mice with a syringe. When the tumor volume grew to 100-200 mm^3, animals with moderate tumor size were randomly divided into groups, with 6 animals in each group. […] The mice were administered intragastrically every day for 2 weeks. During the administration, the weights and tumor diameters of the mice were measured every day. After the experiment, the mice were sacrificed by cervical dislocation, and the tumors were taken and weighed. The formula for calculating a tumor volume (TV) is: TV=½×a×b^2, where a represents the long diameter of a tumor; b represents the short diameter of a tumor.

Data set [5] has as its system CT26 cells. In words: CT26 subcutaneous mouse xenograft model. As to conditions: 3 weeks. The data set is classed as in vivo, C57BL/6 mice. Here is the method: CT26 cells were cultured and amplified in vitro. Appropriate amount of the cells in logarithmic growth phase were resuspended in a suspension of a serum-free RPMI 1640 medium and Matrigel (1:1) to prepare a cell suspension in 5×10^5/100 μL under sterile conditions. 100 μL of the cell suspension was subcutaneously inoculated into the armpits of the front left limbs of male C57BL/6 mice with a syringe. When the tumor volume grew to 50-70 mm^3, animals with moderate tumor size were randomly divided into groups, with 5 animals in each group. […] The mice were administered intragastrically every day for 3 weeks. During the administration, the weights and tumor diameters of the mice were measured every day. After the experiment, the mice were sacrificed by cervical dislocation, and the tumors were taken and weighed. The formula for calculating a tumor volume (TV) is: TV=½×a×b2, where a represents the long diameter of a tumor; b represents the short diameter of a tumor.

As to `C=C1C(=O)O[C@@H]2[C@@H]3[C@]4(CC[C@@]3(C)O)C[C@]4(C)CC[C@@H]12` [Compound 1], the “Non-degradation percentage at 8 h” value in data set [1] turned out to be 99.08%. Further, the “Non-degradation percentage at 16 h” value in data set [1] is 98.76%. For the same molecule, the “Non-degradation percentage at 24 h” value in data set [1] amounted to 98.16%. The IL-1β is reported as 1824.88 ± 32.73 pg/mL in data set [2] (0.4 μmol/kg) and 945.66 ± 36.71 pg/mL in data set [2] (4 μmol/kg). For the same molecule, the IL-6 was determined as 2760.57 ± 288.02 pg/mL in data set [2] (0.4 μmol/kg) and 1314.91 ± 231.08 pg/mL in data set [2] (4 μmol/kg). For the same molecule, the “MPO activity in colon tissue” value in data set [3] (20 nmol/kg i.g.) was 1.40 ± 0.31 U/g tissue; in data set [3] (40 nmol/kg i.g.) it was 1.08 ± 0.12 U/g tissue. Besides, the Colon length in data set [3] (20 nmol/kg/d i.g.) came to 6.15 ± 0.35 cm; in data set [3] (40 nmol/kg/d i.g.), 6.78 ± 0.28 cm. Also, the DAI score in data set [3] (day 1, 20 nmol/kg i.g.) is given as 0.00 ± 0.00; in data set [3] (day 1, 40 nmol/kg i.g.), 0.00 ± 0.00; in data set [3] (day 2, 20 nmol/kg i.g.), 0.33 ± 0.14; in data set [3] (day 2, 40 nmol/kg i.g.), 0.33 ± 0.19; in data set [3] (day 3, 20 nmol/kg i.g.), 0.75 ± 0.28; in data set [3] (day 3, 40 nmol/kg i.g.), 0.58 ± 0.21. Besides, the DAI score in data set [3] (day 4, 20 nmol/kg i.g.) came out at 1.08 ± 0.37; in data set [3] (day 4, 40 nmol/kg i.g.), 1.00 ± 0.19; in data set [3] (day 5, 20 nmol/kg i.g.) it was 1.75 ± 0.50; in data set [3] (day 5, 40 nmol/kg i.g.), 1.25 ± 0.34; in data set [3] (day 6, 20 nmol/kg i.g.) it was 2.25 ± 0.44; in data set [3] (day 6, 40 nmol/kg i.g.) it was 1.67 ± 0.36. Moreover, the DAI score in data set [3] (day 7, 20 nmol/kg i.g.) turned out to be 2.50 ± 0.17; in data set [3] (day 7, 40 nmol/kg i.g.) it was 1.83 ± 0.44; in data set [3] (day 8, 20 nmol/kg i.g.), 2.75 ± 0.39; in data set [3] (day 8, 40 nmol/kg i.g.), 1.92 ± 0.50; in data set [3] (day 9, 20 nmol/kg i.g.), 1.83 ± 0.17; in data set [3] (day 9, 40 nmol/kg i.g.), 1.17 ± 0.32. Besides, the DAI score is 1.25 ± 0.16 in data set [3] (day 10, 20 nmol/kg i.g.) and 0.50 ± 0.22 in data set [3] (day 10, 40 nmol/kg i.g.).

In data set [2] (0.4 μmol/kg), `CN(C)C[C@@H]1C(=O)O[C@H]2[C@H]1CC[C@@]1(C)C[C@]13CC[C@@](C)(O)[C@H]23` [Compound 22] yielded an IL-1β of 1570.02 ± 62.95 pg/mL and an IL-6 of 2348.32 ± 202.75 pg/mL. In data set [2] (4 μmol/kg), the IL-1β is on record as 708.74 ± 38.40 pg/mL and the IL-6 is 1172.00 ± 240.50 pg/mL.

`CN(C)C[C@@H]1C(=O)O[C@H]2[C@H]1CC[C@@]1(C)C[C@]13CC[C@@](C)(O)[C@H]23` [Compound 23]: the Tumor growth inhibition in data set [4] (8.43 mg/kg/d i.g.) is on record as 42.92%; in data set [5] (16.86 mg/kg/d i.g.), 43.36%. Besides, the figures for the Tumor weight in data set [4] (8.43 mg/kg/d i.g.) and in data set [5] (16.86 mg/kg/d i.g.) were 4.88 g and 4.62 g, respectively. Besides, the IL-1β turned out to be 1623.55 ± 32.64 pg/mL in data set [2] (0.4 μmol/kg) and 888.28 ± 35.20 pg/mL in data set [2] (4 μmol/kg). Moreover, the IL-6 in data set [2] (0.4 μmol/kg) is 2585.26 ± 273.50 pg/mL; in data set [2] (4 μmol/kg), 1288.32 ± 123.80 pg/mL. For the same molecule, the “MPO activity in colon tissue” value amounted to 1.29 ± 0.11 U/g tissue in data set [3] (20 nmol/kg i.g.) and 0.99 ± 0.18 U/g tissue in data set [3] (40 nmol/kg i.g.). The Colon length in data set [3] (20 nmol/kg/d i.g.) came to 6.51 ± 0.25 cm; in data set [3] (40 nmol/kg/d i.g.) it was 7.26 ± 0.26 cm. For the same molecule, the DAI score was found to be 0.00 ± 0.00 in data set [3] (day 1, 20 nmol/kg i.g.); 0.00 ± 0.00 in data set [3] (day 1, 40 nmol/kg i.g.); 0.27 ± 0.09 in data set [3] (day 2, 20 nmol/kg i.g.); 0.16 ± 0.10 in data set [3] (day 2, 40 nmol/kg i.g.); 0.63 ± 0.14 in data set [3] (day 3, 20 nmol/kg i.g.); 0.54 ± 0.11 in data set [3] (day 3, 40 nmol/kg i.g.). In addition, the DAI score in data set [3] (day 4, 20 nmol/kg i.g.) was 0.96 ± 0.16; in data set [3] (day 4, 40 nmol/kg i.g.), 1.20 ± 0.14; in data set [3] (day 5, 20 nmol/kg i.g.), 1.02 ± 0.23; in data set [3] (day 5, 40 nmol/kg i.g.), 0.61 ± 0.23; in data set [3] (day 6, 20 nmol/kg i.g.), 1.56 ± 0.41; in data set [3] (day 6, 40 nmol/kg i.g.) it was 1.07 ± 0.25. Also, the DAI score is 2.28 ± 0.23 in data set [3] (day 7, 20 nmol/kg i.g.); 1.38 ± 0.25 in data set [3] (day 7, 40 nmol/kg i.g.); 2.46 ± 0.26 in data set [3] (day 8, 20 nmol/kg i.g.); 1.57 ± 0.28 in data set [3] (day 8, 40 nmol/kg i.g.); 1.31 ± 0.18 in data set [3] (day 9, 20 nmol/kg i.g.); 1.05 ± 0.25 in data set [3] (day 9, 40 nmol/kg i.g.). Further, the DAI score in data set [3] (day 10, 20 nmol/kg i.g.) is given as 0.80 ± 0.16; in data set [3] (day 10, 40 nmol/kg i.g.) it was 0.35 ± 0.16.

With `C=C1C(=O)O[C@@H]2[C@H]3C(C)=CC[C@@]34O[C@@]4(C)CC[C@@H]12` [arglabin, reference compound], the figures for the Tumor growth inhibition in data set [4] (10 mg/kg/d i.g.) and in data set [5] (20 mg/kg/d i.g.) were 39.43% and 34.94%, respectively. Besides, the Tumor weight is 5.18 g in data set [4] (10 mg/kg/d i.g.) and 5.31 g in data set [5] (20 mg/kg/d i.g.). The “Non-degradation percentage at 8 h” value in data set [1] is reported as 50.14%. For the same molecule, the “Non-degradation percentage at 16 h” value in data set [1] is reported as 48.70%. In data set [1], the “Non-degradation percentage at 24 h” value amounted to 43.40%. The “MPO activity in colon tissue” value in data set [3] (20 nmol/kg i.g.) amounted to 0.95 ± 0.18 U/g tissue. In data set [3] (20 nmol/kg/d i.g.), the Colon length was found to be 6.50 ± 0.15 cm. Also, the DAI score came to 0.00 ± 0.00 in data set [3] (day 1, 20 nmol/kg i.g.); 0.36 ± 0.20 in data set [3] (day 2, 20 nmol/kg i.g.); 0.65 ± 0.20 in data set [3] (day 3, 20 nmol/kg i.g.); 1.17 ± 0.19 in data set [3] (day 4, 20 nmol/kg i.g.); 1.39 ± 0.13 in data set [3] (day 5, 20 nmol/kg i.g.); 1.62 ± 0.10 in data set [3] (day 6, 20 nmol/kg i.g.). Moreover, the DAI score in data set [3] (day 7, 20 nmol/kg i.g.) is 2.07 ± 0.17; in data set [3] (day 8, 20 nmol/kg i.g.) it was 2.32 ± 0.10; in data set [3] (day 9, 20 nmol/kg i.g.), 1.45 ± 0.13; in data set [3] (day 10, 20 nmol/kg i.g.), 0.92 ± 0.06.
